# Data published in US20200055839A1 (priority 2017, published 2020).
# System: NL-RLuc virus
# Assay: Inhibition of HIV replication (NL-RLuc virus, luciferase readout in MT-2 cells)
# Assay type: cell-based
# Details: Human immunodeficiency virus 1, MT2, 120 h, MT-2 cells infected with NL-RLuc virus, 5 days of incubation, 10% FBS, at least 2 experiments
# Outline: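 EC50 derived via median effect equation from at least 2 experiments, using luciferase expression as virus-growth readout. Replication-competent NL-RLuc reporter virus (nef partly replaced by Renilla luciferase) infected MT-2 cells with serial compound dilutions; 5-day incubation in RPMI 1640 plus 10% FBS.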
row,SMILES,EC50 [nM]
1,"Cc1nc(C(=O)N2CCS(=O)(=O)CC2)c(-c2ccc(OCCc3ccc(F)cc3)cc2)c(N2CCC(C)(C)CC2)c1[C@H](OC(C)(C)C)C(=O)O [Example 10, (S)-2-(tert-Butoxy)-2-(4-(4,4-dimethylpiperidin-1-yl)-6-(1,1-dioxidothiomorpholine-4-carbonyl)-5-(4-(4-fluorophenethoxy)phenyl)-2-methylpyridin-3-yl)acetic acid]",31
2,"Cc1nn(-c2nc(C)c([C@H](OC(C)(C)C)C(=O)O)c(N3CCC(C)(C)CC3)c2-c2ccc(OCCc3ccc(F)cc3)cc2)c(C)c1C [Example 75, (S)-2-(tert-Butoxy)-2-(4-(4,4-dimethylpiperidin-1-yl)-5-(4-(4-fluorophenethoxy)phenyl)-2-methyl-6-(3,4,5-trimethyl-H-pyrazol-1-yl)pyridin-3-yl)acetic acid]",3
3,"Cc1nc(CN2CCC3(CCC3)CC2)c(-c2ccc(F)c(F)c2)c(N2CCC(C)(C)CC2)c1[C@H](OC(C)(C)C)C(=O)O [Example 195, (2S)-2-[6-({7-Azaspiro[3.5]nonan-7-yl}methyl)-5-(3,4-difluorophenyl)-4-(4,4-dimethylpiperidin-1-yl)-2-methylpyridin-3-yl]-2-(tert-butoxy)acetic acid]",1
4,"CC1(C)CCN(c2c(-c3ccc(OCCc4ccc(F)cc4)cc3)cnc(CF)c2[C@H](OC(C)(C)C)C(=O)O)CC1 [Example 7, (S)-2-(tert-Butoxy)-2-(4-(4,4-dimethylpiperidin-1-yl)-2-(fluoromethyl)-5-(4-(4-fluorophenethoxy)phenyl)pyridin-3-yl)acetic acid]",2
5,CCc1ncc(-c2ccc(OCCc3ccc(F)cc3)cn2)c(N2CCC(C)(C)CC2)c1[C@H](OC(C)(C)C)C(=O)O [Example 270],0.6
6,"Cc1cc(CCOc2ccc(-c3cnc(C)c([C@H](OC(C)(C)C)C(=O)O)c3N3CCC(C)(C)CC3)nc2)ccc1F [Example 294, (2S)-2-(tert-butoxy)-2-[4′-(4,4-dimethylpiperidin-1-yl)-5-[2-(4-fluoro-3-methylphenyl)ethoxy]-6′-methyl-[2,3′-bipyridine]-5′-yl]acetic acid]",2
7,"Cc1ncc(-c2ccc(OCCCCc3ccccc3)cn2)c(N2CCC(C)(C)CC2)c1[C@H](OC(C)(C)C)C(=O)O [Example 341, (2S)-2-(tert-butoxy)-2-[4′-(4,4-dimethylpiperidin-1-yl)-6′-methyl-5-(4-phenylbutoxy)-[2,3′-bipyridine]-5′-yl]acetic acid]",3
8,"COc1ccc(-c2cnc(C)c([C@H](OC(C)(C)C)C(=O)O)c2N2CCC(C)(C)CC2)cc1 [Example 136, (2S)-2-(tert-Butoxy)-2-[4-(4,4-dimethylpiperidin-1-yl)-5-(4-methoxyphenyl)-2-methylpyridin-3-yl]acetic acid]",2
9,"Cc1nc(OCCc2ccc(F)cc2)ccc1-c1cnc(C)c([C@H](OC(C)(C)C)C(=O)O)c1N1CCC(C)(C)CC1 [Example 260, (S)-2-(tert-Butoxy)-2-(4-(4,4-dimethylpiperidin-1-yl)-6′-(4-fluorophenethoxy)-2′,6-dimethyl-[3, 3′-bipyridin]-5-yl)acetic acid]",11
10,"Cc1nc(Nc2ccc(F)cn2)c(-c2ccc(OCCc3ccc(F)cc3)cc2)c(N2CCC(C)(C)CC2)c1[C@H](OC(C)(C)C)C(=O)O [Example 83, (S)-2-(tert-Butoxy)-2-(4-(4,4-dimethylpiperidin-1-yl)-5-(4-(4-fluorophenethoxy)phenyl)-6-((5-fluoropyridin-2-yl)amino)-2-methylpyridin-3-yl)acetic acid]",5
11,"Cc1ncc(-c2cnc(N(C)C)c(F)c2)c(N2CCC(C)(C)CC2)c1[C@H](OC(C)(C)C)C(=O)O [Example 114, (S)-2-(tert-Butoxy)-2-(6′-(dimethylamino)-4-(4,4-dimethylpiperidin-1-yl)-5′-fluoro-6-methyl-[3,3′-bipyridin]-5-yl)acetic acid]",24
12,"Cc1ncc(-c2ccc(OCCc3ccccc3Cl)cn2)c(N2CCC(C)(C)CC2)c1[C@H](OC(C)(C)C)C(=O)O [Example 302, (2S)-2-(tert-butoxy)-2-{5-[2-(2-chlorophenyl)ethoxy]-4′-(4,4-dimethylpiperidin-1-yl)-6′-methyl-[2,3′-bipyridine]-5′-yl}acetic acid]",0.6
13,"Cc1cccnc1Nc1nc(C)c([C@H](OC(C)(C)C)C(=O)O)c(N2CCC(C)(C)CC2)c1-c1ccc(OCCc2ccc(F)cc2)cc1 [Example 65, (S)-2-(tert-Butoxy)-2-(4-(4,4-dimethylpiperidin-1-yl)-5-(4-(4-fluorophenethoxy)phenyl)-2-methyl-6-((3-methylpyridin-2-yl)amino)pyridin-3-yl)acetic acid]",2
14,"Cc1ncc(-c2ncc(OCCc3ccc(F)cc3)cc2F)c(N2CCC(C)(C)CC2)c1[C@H](OC(C)(C)C)C(=O)O [Example 233, (S)-2-(tert-Butoxy)-2-(4′-(4,4-dimethylpiperidin-1-yl)-3-fluoro-5-(4-fluorophenethoxy)-6′-methyl-[2, 3′-bipyridin]-5′-yl)acetic acid]",2
15,"CCC(C)(C)O[C@H](C(=O)O)c1c(C)ncc(-c2ccc(OCCc3ccccc3)cc2)c1N1CCC(C)(C)CC1 [Example 264, (S)-2-(4-(4,4-Dimethylpiperidin-1-yl)-2-methyl-5-(4-phenethoxyphenyl)pyridin-3-yl)-2-(tert-pentyloxy)acetic acid]",3
16,"Cc1ncc(-c2ccc(O[C@@H](C)c3ccccc3)cn2)c(N2CCC(C)(C)CC2)c1[C@H](OC(C)(C)C)C(=O)O [Example 349, (2S)-2-(tert-butoxy)-2-[4′-(4,4-dimethylpiperidin-1-yl)-6′-methyl-5-[(1S)-1-phenylethoxy]-[2,3′-bipyridine]-5′-yl]acetic acid]",1
17,"Cc1ncc(-c2ccc(OCCc3ccc(F)cc3)c(Cl)c2)c(N2CCC(C)(C)CC2)c1[C@H](OC(C)(C)C)C(=O)O [Example 235, (S)-2-(tert-Butoxy)-2-(5-(3-chloro-4-(4-fluorophenethoxy)phenyl)-4-(4,4-dimethylpiperidin-1-yl)-2-methylpyridin-3-yl)acetic acid]",2
18,"Cc1ncc(-c2ccc(OCc3ccccc3Cl)cn2)c(N2CCC(C)(C)CC2)c1[C@H](OC(C)(C)C)C(=O)O [Example 336, (2S)-2-(tert-butoxy)-2-{5-[(2-chlorophenyl)methoxy]-4′-(4,4-dimethylpiperidin-1-yl)-6′-methyl-[2,3′-bipyridine]-5′-yl}acetic acid]",2
19,"Cc1ncc(-c2ccc(F)cc2)c(N2CCC(C)(C)CC2)c1[C@H](OC(C)(C)C)C(=O)O [Example 135, (2S)-2-(tert-Butoxy)-2-[4-(4,4-dimethylpiperidin-1-yl)-5-(4-fluorophenyl)-2-methylpyridin-3-yl]acetic acid]",3
20,"Cc1ncc(-c2ccc(OC(C)CC(C)C)nc2)c(N2CCC(C)(C)CC2)c1[C@H](OC(C)(C)C)C(=O)O (stereo partly drawn) [Example 439, (2S)-2-tert-Butoxy-2-(4-(4,4-dimethylpiperidin-1-yl)-6-methyl-6′-(4-methylpentan-2-yloxy)-3, 3′-bipyridin-5-yl)acetic acid]",15
21,"Cc1cccc(COc2ccc(-c3cnc(C)c([C@H](OC(C)(C)C)C(=O)O)c3N3CCC(C)(C)CC3)nc2)c1 [Example 347, (2S)-2-(tert-butoxy)-2-[4′-(4,4-dimethylpiperidin-1-yl)-6′-methyl-5-[(3-methylphenyl)methoxy]-[2,3′-bipyridine]-5′-yl]acetic acid]",1
22,"CCOc1c(C(F)(F)F)ccc(-c2cnc(C)c([C@H](OC(C)(C)C)C(=O)O)c2N2CCC(C)(C)CC2)c1F [Example 173, (2S)-2-(tert-butoxy)-2-[4-(4,4-dimethylpiperidin-1-yl)-5-[3-ethoxy-2-fluoro-4-(trifluoromethyl)phenyl]-2-methylpyridin-3-yl]acetic acid]",21
23,"Cc1nc(Nc2ccncn2)c(-c2ccc(OCCc3ccc(F)cc3)cc2)c(N2CCC(C)(C)CC2)c1[C@H](OC(C)(C)C)C(=O)O [Example 88, (S)-2-(tert-Butoxy)-2-(4-(4,4-dimethylpiperidin-1-yl)-5-(4-(4-fluorophenethoxy)phenyl)-2-methyl-6-(pyrimidin-4-ylamino)pyridin-3-yl)acetic acid]",0.5
24,"COc1ccc(CCOc2ccc(-c3cnc(C)c([C@H](OC(C)(C)C)C(=O)O)c3N3CCC(C)(C)CC3)nc2)cc1F [Example 330, (2S)-2-(tert-butoxy)-2-[4′-(4,4-dimethylpiperidin-1-yl)-5-[2-(3-fluoro-4-methoxyphenyl)ethoxy]-6′-methyl-[2,3′-bipyridine]-5′-yl]acetic acid]",0.4
25,"COc1ccc(CCOc2ccc(-c3cnc(C)c([C@H](OC(C)(C)C)C(=O)O)c3N3CCC(C)(C)CC3)nc2)cc1C [Example 291, (2S)-2-(tert-butoxy)-2-[4′-(4,4-dimethylpiperidin-1-yl)-5-[2-(4-methoxy-3-methylphenyl)ethoxy]-6′-methyl-[2,3′-bipyridine]-5′-yl]acetic acid]",2
26,"Cc1ncc(-c2ccc(OCc3ccc(Cl)cc3)cn2)c(N2CCC(C)(C)CC2)c1[C@H](OC(C)(C)C)C(=O)O [Example 338, (2S)-2-(tert-butoxy)-2-{5-[(4-chlorophenyl)methoxy]-4′-(4,4-dimethylpiperidin-1-yl)-6′-methyl-[2,3′-bipyridine]-5′-yl}acetic acid]",1
27,"Cc1ccc(CCOc2ccc(-c3cnc(C)c([C@H](OC(C)(C)C)C(=O)O)c3N3CCC(C)(C)CC3)nc2)cc1 [Example 300, (2S)-2-(tert-butoxy)-2-[4′-(4,4-dimethylpiperidin-1-yl)-6′-methyl-5-[2-(4-methylphenyl)ethoxy]-[2,3′-bipyridine]-5′-yl]acetic acid]",1
28,"Cc1nc(NC2CCN(S(C)(=O)=O)CC2)c(-c2ccc(OCCc3ccc(F)cc3)cc2)c(N2CCC(C)(C)CC2)c1[C@H](OC(C)(C)C)C(=O)O [Example 99, (S)-2-(tert-Butoxy)-2-(4-(4,4-dimethylpiperidin-1-yl)-5-(4-(4-fluorophenethoxy)phenyl)-2-methyl-6-((1-(methylsulfonyl)piperidin-4-yl)amino)pyridin-3-yl)acetic acid]",0.6
